# Test results taken from patent US5334761A, “Cationic lipids” (Life Technologies, Inc., priority 1992, dated 1994).
# Counter-ions that a name gives are not always drawn.
# Assays:
# [1] = system: BHK-21 cells; assay: % protein (toxicity estimate, Bradford) after transfection; type: cell-based, baby hamster
# Description: (§1) A one-to-one mixture (by weight) of the desired lipid and dioleylphosphatidyl ethanolamine was prepared in CHCl3. The CHCl3 was removed on the rotary evaporator to obtain a thin film of lipid mixture. The mixture was hydrated with enough water to obtain approximately 1.25 mg of lipid per ml of solution. The solution was passed through a microfluidizer twice and diluted to 1 mg/ml. The liposome formulation was then filtered through a 0.2 μ filter. Compound 8 was also formulated without DOPE either by sonication at 1 mg/ml in water or by dissolving a dried lipid film with ethanol and then adding water to give a final concentration of 2.5 mg/ml. Ethanol was 10% of that volume. In some instances, this was further diluted with water to 1 mg/ml, 4% ethanol.
# (§2) Baby hamster kidney (BHK-21) , COS-7, HeLa-S3 cells, and normal human fibroblasts isolated from newborn foreskin dermis were grown in Dulbecco's-modified Eagle's medium (DMEM) containing 10% fetal bovine serum (FBS), 2 mM L-glutamine (gln), 0.1 mM MEM nonessential amino acids (NEAA), 100 U/ml penicillin, and 100 μg/ml streptomycin. […]
# (§3) The "% protein" column indicates the relative amount of protein in the sample tested for CAT activity and therefore provides a way to estimate toxicity of the compounds being tested. […] Protein was measured using a commercially available Bradford protein assay (BioRad Laboratories, Richmond, Ca.). […]
# [2] = system: NIH-3T3 cells; assay: CAT transient transfection; type: cell-based, mouse
# Description: as §1
# (§4) Baby hamster kidney (BHK-21) , COS-7, HeLa-S3 cells, and normal human fibroblasts isolated from newborn foreskin dermis were grown in Dulbecco's-modified Eagle's medium (DMEM) containing 10% fetal bovine serum (FBS), 2 mM L-glutamine (gln), 0.1 mM MEM nonessential amino acids (NEAA), 100 U/ml penicillin, and 100 μg/ml streptomycin. NIH-3T3 cells were grown in DMEM containing 10% calf serum (CS), 2 mMgln, 0.1 mM NEAA 100 U/ml penicillin, and 100 μg/ml streptomycin. PC12 cells were grown in DMEMcontaining 10% horse serum, 5% FBS, 2 mM gln, 0 1 mMNEAA, 100 U/ml penicillin and 100 μ/ml streptomycin. Jurkat cells (human lymphoid cell line) were grown in RPMI-1640 supplemented with 10% FBS, 2mML-glutamine, 100 U/ml penicillin, and 100 μg/ml streptomycin. Human keratinocytes were isolated from newborn foreskin epidermis and cultured in Keratinocyte Growth Medium (Clonetics, San Diego, Ca.). All cell lines were maintained in a humidified incubator with a 5% CO2 atmosphere at 37° C.
# (§5) pSV2CAT (5.0 Kb) was described previously (Gorman, C. M. et al. (1982) Mol. Cell. Biol. 2:1044). pCMVCAT (5.0 Kb) was also described previously (Foecking M. K. and Hofstetter, H. (1986) Gene 45:101). Plasmid DNA was purified by isopycnic centrifugation in CsCl/EtBr gradients after recovery by alkaline lysis (Maniatis, T. et al. (1982) in Molecular Cloning: A Laboratory Manual, Cold Spring Harbor Laboratory, Cold Spring Harbor, N.Y., pp. 90-91).
# For transient transfection of pSV2CAT DNA or pCMVCAT DNA, cells were plated in 6-well tissue culture dishes (35 mm wells) and incubated overnight to approximately 60% confluency. To transfect cells in one well, 1-2 μg of pSV2CAT DNA or pCMVCAT DNA was diluted in 100 μl Opti-MEM I. Cationic lipids were diluted separately in another 100 μl aliquot of Opti-MEM I. The two solutions were then mixed in a polystyrene tube, incubated for 10-15 min at room temperature to allow the formation of a DNA-liposome complex, and diluted to one ml by adding 0.8 ml Opti-MEM I or DMEM containing 5% fetal bovine serum (FBS), 2 mMgln, 0.1 mMNEAA, and lacking antibiotics. The cells were washed once with Opti-MEM I or serum-free DMEM, and the DNA-liposome complex was added directly to the cells. After a six hr incubation at 37° C., the transfection complexes were removed and two ml of DMEM containing 10% FBS, 2 mMgln, 0.2 mMNEAA, 100 U/ml penicillin, and 100 μg/ml streptomycin, was added to each well. Note: human keratinocytes were cultured and transfected in Keratinocyte Growth Medium. Cells were incubated for an additional 48 hrs and lysed in situ by freeze-thawing once or twice in 300 μl 0.1M Tris-HC1, pH 7.8-8.0 containing 0 1% Triton X-100. Cell lysates were assayed for CAT activity.
# (§6) Cell lysates were assayed for CAT activity as described by Neumann et al. (1987) BioTechniques 5:444 using [^14 C]-butyryl coenzyme A (New England Nuclear, Boston, Mass.). The enzyme reactions were incubated for 2 hrs at 37° C., overlayed with 3.0 ml Econofluor (New England Nuclear) and then incubated for an additional 2 hrs to allow diffusion of the acetylated chloramphenicol into the scintillation fluid. CAT activity was determined by measuring radioactivity in a liquid scintillation counter. […]
# [3] = system: NIH-3T3 cells; assay: % protein (toxicity estimate, Bradford) after transfection; type: cell-based, mouse
# Description: as §1, §2, §3
# [4] = system: PC12 cells; assay: CAT transient transfection; type: cell-based, rat
# Description: as §1, §2
# Cell lysates were assayed for CAT activity as described by Neumann et al. (1987) BioTechniques 5:444 using [^14 C]-butyryl coenzyme A (New England Nuclear, Boston, Mass.). […] CAT activity was determined by measuring radioactivity in a liquid scintillation counter. […]
# [5] = system: Jurkat cells; assay: CAT transient transfection; type: cell-based, human
# Description: as §1, §4, §5
# For transient nuclear expression of pSV2CAT or pCMVCAT in Jurkat cells, cells were washed with Opti-MEM I or serum-free RPMI 1640 containing 2 mM gln and plated in six-well plates at a density of 3×10^6 cells per well in 0.8 ml Opti-MEM I or RPMI 1640. For each transfection, 5 μg pSV2CAT DNA or 2 μg pCMVCAT DNA was diluted in 100 μl Opti-MEM I. Lipids were diluted separately in another 100 μl aliquot of Opti-MEMI. The two solutions were then mixed in a polystyrene tube and incubated for 10-15 min at room temperature. The DNA-liposome complex was added to the cell suspensions and incubated 6 hours at 37° C., after which 4 ml growth medium were added per well (RPMI-1640; 10% FBS). Phorbol myristate acetate (Sigma Chemical Co., St. Louis, Mo.) and phytohemagglutinin (Sigma) were also added to a final concentration of 50 ng/ml and 1 μg/ml, respectively, to activate the cells. Cells were harvested at approximately 48 hours post-transfection by centrifugation. Cell lysates were prepared by resuspending cell pellets at 0° C. in 0.1 M Tris-HC1 pH 8.0 containing 0.1% Triton X-100 and freeze-thawing once. Cell lysates were cleared by centrifugation and assayed for CAT activity.
# as §6
structure (smiles),measurement,setting,value
"CCCCCCCC/C=C\CCCCCCCCOCC(C[N+](C)(C)CCNC(=O)C(CCCNCCCN)NCCCN)OCCCCCCCC/C=C\CCCCCCCC (centres unmarked) [Compound 8, 1-Propanaminium, N-[2-[[2,5-bis[(3-amino]-1-oxopentyl]amino]ethyl]-n,n-dimethyl-2,3,-bis(9-octadecenyloxy)-, tetra(trifluoroacetate) salt]",toxicity (in words),[1],minimal toxicity
same,CAT ACTIVITY,"[2]; 15 μg lipid, 2 μg pCMVCAT, 6 h DMEM","30,488 CPM/150 ul"
same,DNA transfection (in words),[2]; NIH-3T3,highly effective
same,toxicity (in words),[3],minimal toxicity
same,CAT ACTIVITY,"[4]; 40 μg lipid, 2 μg pCMVCAT, 6 h DMEM","28,512 CPM/150 ul"
same,DNA transfection (in words),[4]; PC12,highly effective
same,CAT ACTIVITY,"[5]; 15 μg lipid, 2 μg pCMVCAT, 6 h RPMI1640","44,996 CPM/150 ul"
same,DNA transfection (in words),[5]; Jurkat,highly effective
